# Earlier results, collected in patent US20230321008A1, “INHIBITORS OF ACID SPHINGOMYELINASE FOR PREVENTING AND TREATING THE COVID-19 DISEASE” (priority 2020, published 2023).
# Biological target: T1, acid sphingomyelinase (ASM) (Homo sapiens, UniProt P17405)
# T1 sequence (P17405 47-631): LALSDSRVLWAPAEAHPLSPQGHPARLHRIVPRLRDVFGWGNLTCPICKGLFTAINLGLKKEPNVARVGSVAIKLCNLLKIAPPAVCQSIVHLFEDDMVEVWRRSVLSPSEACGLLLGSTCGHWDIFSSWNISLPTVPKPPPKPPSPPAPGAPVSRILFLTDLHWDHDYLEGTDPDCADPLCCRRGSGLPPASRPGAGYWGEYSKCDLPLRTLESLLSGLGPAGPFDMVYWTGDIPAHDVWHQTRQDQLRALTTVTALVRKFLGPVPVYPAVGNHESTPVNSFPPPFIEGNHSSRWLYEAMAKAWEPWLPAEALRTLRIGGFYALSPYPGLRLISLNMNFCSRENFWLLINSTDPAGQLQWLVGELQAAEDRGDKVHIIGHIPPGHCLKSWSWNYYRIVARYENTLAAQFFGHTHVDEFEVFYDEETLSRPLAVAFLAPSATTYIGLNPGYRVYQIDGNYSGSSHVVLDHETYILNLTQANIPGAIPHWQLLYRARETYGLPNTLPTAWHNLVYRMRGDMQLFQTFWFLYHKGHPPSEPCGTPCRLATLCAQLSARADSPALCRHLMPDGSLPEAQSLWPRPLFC
# Conditions: cited from earlier work
row,Structure (SMILES),In vitro inhibition of acid sphingomyelinase (in words)
1,OC1(c2ccc(Cl)c(C(F)(F)F)c2)CCN(CCCC(c2ccc(F)cc2)c2ccc(F)cc2)CC1 [Penfluridol],in vitro inhibit acid sphingomyelinase with varying degrees
2,CN(C)CCC=C1c2ccccc2COc2ccccc21 [doxepin],in vitro inhibit acid sphingomyelinase with varying degrees
3,CCN(CC)CCNC(C(=O)OCCC(C)C)c1ccccc1 (centres unmarked) [camylofin],in vitro inhibit acid sphingomyelinase with varying degrees
4,OC(CCN1CCCCC1)(c1ccccc1)C1CC2C=CC1C2 (centres unmarked) [biperidene],in vitro inhibit acid sphingomyelinase with varying degrees
5,OCCN1CCN(CCCN2c3ccccc3Sc3ccc(Cl)cc32)CC1 [Perphenazine],in vitro inhibit acid sphingomyelinase with varying degrees
6,CN1CCN2c3ncccc3Cc3ccccc3C2C1 (centres unmarked) [mirtazapine],"there are discrepancies whether citalopram, venlafaxine and mirtazapine do have in vitro FIASMA effect"
7,CC(NCCC(c1ccccc1)c1ccccc1)c1ccccc1 (centres unmarked) [fendiline],in vitro inhibit acid sphingomyelinase with varying degrees
8,COc1ccc(C(CN(C)C)C2(O)CCCCC2)cc1 (centres unmarked) [venlafaxine],"there are discrepancies whether citalopram, venlafaxine and mirtazapine do have in vitro FIASMA effect"
9,CC(C)/N=c1\cc2n(-c3ccc(Cl)cc3)c3ccccc3nc-2cc1Nc1ccc(Cl)cc1 [clofazimine],in vitro inhibit acid sphingomyelinase with varying degrees
10,CC(C)COCC(CN(Cc1ccccc1)c1ccccc1)N1CCCC1 (centres unmarked) [bepridil],in vitro inhibit acid sphingomyelinase with varying degrees
11,"COc1ccccc1OCCNCC(O)COc1cccc2[nH]c3ccccc3c12 (centres unmarked) [Carvedilol, carvedilol]",in vitro inhibit acid sphingomyelinase with varying degrees
12,CSc1ccc2c(c1)N(CCC1CCCCN1C)c1ccccc1S2 (centres unmarked) [Thioridazin],in vitro inhibit acid sphingomyelinase with varying degrees
13,CC/C(=C(\c1ccccc1)c1ccc(OCCN(C)C)cc1)c1ccccc1 [tamoxifen],in vitro inhibit acid sphingomyelinase with varying degrees
14,CN(C)CCCN1c2ccccc2Sc2ccccc21 [Promazine],in vitro inhibit acid sphingomyelinase with varying degrees
15,CC(C)(C)c1ccc(C(O)CCCN2CCC(C(O)(c3ccccc3)c3ccccc3)CC2)cc1 (centres unmarked) [terfenadine],in vitro inhibit acid sphingomyelinase with varying degrees
16,CCN(CCCCOC(=O)c1ccc(OC)c(OC)c1)C(C)Cc1ccc(OC)cc1 (centres unmarked) [mebeverine],in vitro inhibit acid sphingomyelinase with varying degrees
17,O=C1NCCN1CCN1CCC(c2cn(-c3ccc(F)cc3)c3ccc(Cl)cc23)CC1 [Sertindole],in vitro inhibit acid sphingomyelinase with varying degrees
18,CC[C@H]1CN2CCc3cc(OC)c(OC)cc3[C@@H]2C[C@@H]1C[C@H]1NCCc2cc(OC)c(OC)cc21 [emetine],in vitro inhibit acid sphingomyelinase with varying degrees
19,OCCN1CCN(CC/C=C2/c3ccccc3Sc3ccc(C(F)(F)F)cc32)CC1 [Flupenthixol],in vitro inhibit acid sphingomyelinase with varying degrees
20,C1CCC(C(CC2CCCCN2)C2CCCCC2)CC1 (centres unmarked) [perhexiline],in vitro inhibit acid sphingomyelinase with varying degrees
21,CNCCCC1c2ccccc2C=Cc2ccccc21 [protriptyline],in vitro inhibit acid sphingomyelinase with varying degrees
22,CN(C)CCC=C1c2ccccc2C=Cc2ccccc21 [cyclobenzaprine],in vitro inhibit acid sphingomyelinase with varying degrees
23,CCN(CC)C(C)CN1c2ccccc2Sc2ccccc21 (centres unmarked) [profenamine],in vitro inhibit acid sphingomyelinase with varying degrees
24,Fc1ccc(C(c2ccc(F)cc2)N2CCN(C/C=C/c3ccccc3)CC2)cc1 [flunarizine],in vitro inhibit acid sphingomyelinase with varying degrees

row,Structure (SMILES),In vitro inhibition of acid sphingomyelinase (in words)
1,CN1CCc2c(c3ccccc3n2Cc2ccccc2)C1 [mebhydrolin],in vitro inhibit acid sphingomyelinase with varying degrees
2,CC(CN1c2ccccc2Sc2ccccc21)N(C)C (centres unmarked) [promethazine],in vitro inhibit acid sphingomyelinase with varying degrees
3,OCCN1CCN(CCCN2c3ccccc3Sc3ccc(C(F)(F)F)cc32)CC1 [Fluphenazine],in vitro inhibit acid sphingomyelinase with varying degrees
4,CNCCC=C1c2ccccc2CCc2ccccc21 [nortriptyline],in vitro inhibit acid sphingomyelinase with varying degrees
5,CN(C)CCCN1c2ccccc2Sc2ccc(C(F)(F)F)cc21 [Triflupromazine],in vitro inhibit acid sphingomyelinase with varying degrees
6,CCN(CC)CCCN(c1ccccc1)C1Cc2ccccc2C1 [aprindine],in vitro inhibit acid sphingomyelinase with varying degrees
7,C[C@H]1CC[C@]2(NC1)O[C@H]1C[C@H]3[C@@H]4CC[C@H]5C[C@@H](O)CC[C@]5(C)[C@H]4CC[C@]3(C)[C@H]1[C@@H]2C [tomatidine],in vitro inhibit acid sphingomyelinase with varying degrees
8,COc1ccc(CCN2CCC(Nc3nc4ccccc4n3Cc3ccc(F)cc3)CC2)cc1 [astemizole],in vitro inhibit acid sphingomyelinase with varying degrees
9,"CN(C)CCCN1c2ccccc2CCc2ccc(Cl)cc21 [Clomipramine, clomipramine]",in vitro inhibit acid sphingomyelinase with varying degrees
10,CCCCCCCCNC(C)C(O)c1ccc(SC(C)C)cc1 (centres unmarked) [suloctidil],in vitro inhibit acid sphingomyelinase with varying degrees
11,Clc1ccc(C(OCCN2CCCCC2)c2ccccc2)cc1 (centres unmarked) [cloperastine],in vitro inhibit acid sphingomyelinase with varying degrees
12,C[C@@H]1CC[C@@]2(NC1)O[C@H]1C[C@H]3[C@@H]4CC=C5C[C@@H](O)CC[C@]5(C)[C@H]4CC[C@]3(C)[C@H]1[C@@H]2C [solasodine],in vitro inhibit acid sphingomyelinase with varying degrees
13,C[C@H]1[C@H]2CC[C@H]3[C@@H]4CC=C5C[C@@H](N(C)C)CC[C@]5(C)[C@H]4CC[C@]23CN1C [conessine],in vitro inhibit acid sphingomyelinase with varying degrees
14,COc1cc(C(=O)OCCCN2CCCN(CCCOC(=O)c3cc(OC)c(OC)c(OC)c3)CC2)cc(OC)c1OC [dilazep],in vitro inhibit acid sphingomyelinase with varying degrees
15,CN(C)CC/C=C1/c2ccccc2Sc2ccc(Cl)cc21 [Chlorprothixene],in vitro inhibit acid sphingomyelinase with varying degrees
16,CN1CCC(=C2c3ccccc3Sc3ccccc32)CC1 [pimethixene],in vitro inhibit acid sphingomyelinase with varying degrees
17,CN(CCCN1c2ccccc2CCc2ccccc21)CC(=O)c1ccc(Cl)cc1 [lofepramine],in vitro inhibit acid sphingomyelinase with varying degrees
18,CCN(CCCc1ccccc1)CCCc1ccccc1 [alverine],in vitro inhibit acid sphingomyelinase with varying degrees
19,COCC(=O)O[C@]1(CCN(C)CCCc2nc3ccccc3[nH]2)CCc2cc(F)ccc2[C@@H]1C(C)C [mibefradil],in vitro inhibit acid sphingomyelinase with varying degrees
20,CC(CN(C)C)CN1c2ccccc2CCc2ccccc21 (centres unmarked) [trimipramine],in vitro inhibit acid sphingomyelinase with varying degrees
21,CN1CCN(CCCN2c3ccccc3Sc3ccc(C(F)(F)F)cc32)CC1 [Trifluoperazine],in vitro inhibit acid sphingomyelinase with varying degrees
22,CN1[C@@H]2CC[C@H]1C[C@@H](OC(c1ccccc1)c1ccccc1)C2 [benztropine],in vitro inhibit acid sphingomyelinase with varying degrees
23,CCN(CC)CCCC(C)Nc1c2ccc(Cl)cc2nc2ccc(OC)cc12 (centres unmarked) [quinacrine],in vitro inhibit acid sphingomyelinase with varying degrees
